From article PMC5063900, “A phase 1 study of the safety, tolerability, pharmacokinetics, and pharmacodynamics of TAK-063, a selective PDE10A inhibitor” (Psychopharmacology, 2016)

Assay: Treatment-emergent adverse events, phase 1 single-rising-dose study in healthy subjects
Format: in vivo, human
Experimental: Healthy Japanese and non-Japanese subjects between 18 and 55 years of age were recruited to participate in the study. Criteria for exclusion included prior treatment with any investigational compound within 30 days of the first TAK-063 dose, a positive test for drugs of abuse or nicotine, and an increased risk for suicide. […] Following a washout period of 7 days, subjects in cohort 3 (100 mg) received the same dose (100 mg) but under fed conditions.
The study assessed safety and tolerability in all subjects for the 4-day study duration. The primary endpoints were the percentage of subjects who experienced at least one treatment-emergent adverse event (TEAE), as well as the percentage of subjects who met predefined criteria for safety laboratory tests, vital sign measurements, and safety parameters following TAK-063 administration. The secondary endpoints were PK parameters for TAK-063 and M-I, assessing drug exposure at each dose, and the effect of food coadministration on TAK-063 PK. Exploratory endpoints included the effects of TAK-063 on domains of cognition as assessed by a computerized battery, CNS Vital Signs (CNSVS).
Adverse events, clinical laboratory tests, vital signs, 12-lead electrocardiograms (ECGs), and Columbia-Suicide Severity Rating Scale (C-SSRS) were all monitored. Intensity of AEs was classified as mild, moderate, or severe, and each AE was classified as to its relation to study drug.
Laboratory tests evaluated hematology, serum chemistry, urine, and hormone levels. Vital signs and ECGs were collected at screening, check-in, within 1 h predose, serially postdose, and at study exit, while the C-SSRS was administered at screening, check-in, and study exit. Any events reported on the C-SSRS and clinically significant laboratory abnormalities were reported as AEs.

[1] = Japanese subjects, TAK-063 Total (n = 30)
[2] = Japanese subjects, single 3 mg dose (n = 5)
[3] = Japanese subjects, single 10 mg dose (n = 5)
[4] = Japanese subjects, single 30 mg dose (n = 5)
[5] = Japanese subjects, single 100 mg dose (n = 5)
[6] = Japanese subjects, single 300 mg dose (n = 5)
[7] = Japanese subjects, single 1000 mg dose (n = 5)
[8] = all TAK-063-treated subjects, all cohorts
[9] = all subjects, TAK-063 Total (n = 66)
[10] = all subjects, single 3 mg dose (n = 11)
[11] = all subjects, single 10 mg dose (n = 11)
[12] = all subjects, single 30 mg dose (n = 11)

**Q.** What does the source list for COc1cn(-c2ccc(-n3cccn3)cc2F)nc(-c2ccnn2-c2ccccc2)c1=O [TAK-063]?
**A.** Severe AE: orthostatic hypotension, number of subjects (300 mg): 1; Severe AE: somnolence, number of subjects (1000 mg): 2; AEs of mild intensity (55/63 AEs): 87.3%; Total incidence of TEAEs (Japanese subjects treated with TAK-063): 43.3%; Adverse event: Dizziness [1]: 1 (3.3) n (%); Adverse event: Epistaxis [1]: 1 (3.3) n (%); Adverse event: Headache [1]: 1 (3.3) n (%); Adverse event: Muscle tightness [1]: 1 (3.3) n (%); Adverse event: Nausea [1]: 1 (3.3) n (%); Adverse event: Orthostatic hypotension [1]: 4 (13.3) n (%); Adverse event: Orthostatic tachycardia [1]: 5 (16.7) n (%); Adverse event: Somnolence [1]: 10 (33.3) n (%); Adverse event: Vomiting [1]: 2 (6.7) n (%); Adverse event: Dizziness [2]: 0 n (%); Adverse event: Epistaxis [2]: 0 n (%); Adverse event: Headache [2]: 0 n (%); Adverse event: Muscle tightness [2]: 0 n (%); Adverse event: Nausea [2]: 0 n (%); Adverse event: Orthostatic hypotension [2]: 0 n (%); Adverse event: Orthostatic tachycardia [2]: 0 n (%); Adverse event: Somnolence [2]: 0 n (%); Adverse event: Vomiting [2]: 0 n (%); Adverse event: Dizziness [3]: 0 n (%); Adverse event: Epistaxis [3]: 0 n (%); Adverse event: Headache [3]: 0 n (%); Adverse event: Muscle tightness [3]: 0 n (%); Adverse event: Nausea [3]: 0 n (%); Adverse event: Orthostatic hypotension [3]: 0 n (%); Adverse event: Orthostatic tachycardia [3]: 0 n (%); Adverse event: Somnolence [3]: 0 n (%); Adverse event: Vomiting [3]: 0 n (%); Adverse event: Dizziness [4]: 0 n (%); Adverse event: Epistaxis [4]: 1 (20.0) n (%); Adverse event: Headache [4]: 0 n (%); Adverse event: Muscle tightness [4]: 1 (20.0) n (%); Adverse event: Nausea [4]: 0 n (%); Adverse event: Orthostatic hypotension [4]: 0 n (%); Adverse event: Orthostatic tachycardia [4]: 1 (20.0) n (%); Adverse event: Somnolence [4]: 1 (20.0) n (%); Adverse event: Vomiting [4]: 0 n (%); Adverse event: Dizziness [5]: 0 n (%); Adverse event: Epistaxis [5]: 0 n (%); Adverse event: Headache [5]: 1 (20.0) n (%); Adverse event: Muscle tightness [5]: 0 n (%); Adverse event: Nausea [5]: 0 n (%); Adverse event: Orthostatic hypotension [5]: 1 (20.0) n (%); Adverse event: Orthostatic tachycardia [5]: 0 n (%); Adverse event: Somnolence [5]: 4 (80.0) n (%); Adverse event: Vomiting [5]: 1(20.0) n (%); Adverse event: Dizziness [6]: 0 n (%); Adverse event: Epistaxis [6]: 0 n (%); Adverse event: Headache [6]: 0 n (%); Adverse event: Muscle tightness [6]: 0 n (%); Adverse event: Nausea [6]: 0 n (%); Adverse event: Orthostatic hypotension [6]: 1 (20.0) n (%); Adverse event: Orthostatic tachycardia [6]: 1 (20.0) n (%); Adverse event: Somnolence [6]: 2 (40.0) n (%); Adverse event: Vomiting [6]: 0 n (%); Adverse event: Dizziness [7]: 1 (20.0) n (%); Adverse event: Epistaxis [7]: 0 n (%); Adverse event: Headache [7]: 0 n (%); Adverse event: Muscle tightness [7]: 0 n (%); Adverse event: Nausea [7]: 1 (20.0) n (%); Adverse event: Orthostatic hypotension [7]: 2 (40.0) n (%); Adverse event: Orthostatic tachycardia [7]: 3 (60.0) n (%); Adverse event: Somnolence [7]: 3 (60.0) n (%); Adverse event: Vomiting [7]: 1 (20.0) n (%); Subjects experiencing drug-related AEs (across all cohorts): 32 of 66; Total number of drug-related AEs (across all cohorts): 57; Drug-related AE: orthostatic hypotension, incidence [8]: 10.6%; Drug-related AE: orthostatic tachycardia, incidence [8]: 19.7%; Drug-related AE: somnolence, incidence [8]: 33.3%; Adverse event: Anxiety [9]: 1 (1.5) n (%); Adverse event: Blurred vision [9]: 1 (1.5) n (%); Adverse event: Dizziness [9]: 3 (4.5) n (%); Adverse event: Dysarthria [9]: 1(1.5) n (%); Adverse event: Epistaxis [9]: 1 (1.5) n (%); Adverse event: Headache [9]: 2 (3.0) n (%); Adverse event: Hypotension [9]: 1 (1.5) n (%); Adverse event: Muscle tightness [9]: 1 (1.5) n (%); Adverse event: Nausea [9]: 3 (4.5) n (%); Adverse event: Orthostatic hypotension [9]: 7 (10.6) n (%); Adverse event: Orthostatic tachycardia [9]: 13 (19.7) n (%); Adverse event: Somnolence [9]: 22 (33.3) n (%); Adverse event: Vomiting [9]: 3 (4.5) n (%); Adverse event: Anxiety [10]: 0 n (%); Adverse event: Blurred vision [10]: 0 n (%); Adverse event: Dizziness [10]: 0 n (%); Adverse event: Dysarthria [10]: 0 n (%); Adverse event: Epistaxis [10]: 0 n (%); Adverse event: Headache [10]: 0 n (%); Adverse event: Hypotension [10]: 0 n (%); Adverse event: Muscle tightness [10]: 0 n (%); Adverse event: Nausea [10]: 0 n (%); Adverse event: Orthostatic hypotension [10]: 0 n (%); Adverse event: Orthostatic tachycardia [10]: 2 (18.2) n (%); Adverse event: Somnolence [10]: 0 n (%); Adverse event: Vomiting [10]: 0 n (%); Adverse event: Anxiety [11]: 0 n (%); Adverse event: Blurred vision [11]: 0 n (%); Adverse event: Dizziness [11]: 0 n (%); Adverse event: Dysarthria [11]: 0 n (%); Adverse event: Epistaxis [11]: 0 n (%); Adverse event: Headache [11]: 0 n (%); Adverse event: Hypotension [11]: 0 n (%); Adverse event: Muscle tightness [11]: 0 n (%); Adverse event: Nausea [11]: 0 n (%); Adverse event: Orthostatic hypotension [11]: 0 n (%); Adverse event: Orthostatic tachycardia [11]: 0 n (%); Adverse event: Somnolence [11]: 0 n (%); Adverse event: Vomiting [11]: 0 n (%); Adverse event: Anxiety [12]: 0 n (%); Adverse event: Blurred vision [12]: 0 n (%); Adverse event: Dizziness [12]: 1 (9.1) n (%); Adverse event: Dysarthria [12]: 0 n (%); Adverse event: Epistaxis [12]: 1 (9.1) n (%); Adverse event: Headache [12]: 0 n (%); Adverse event: Hypotension [12]: 0 n (%); Adverse event: Muscle tightness [12]: 1 (9.1) n (%); Adverse event: Nausea [12]: 2 (18.2) n (%); Adverse event: Orthostatic hypotension [12]: 0 n (%); Adverse event: Orthostatic tachycardia [12]: 1 (9.1) n (%)
